Experimental data as given in ChEMBL document CHEMBL3817795, “Identification and optimisation of a series of N-(4-anilino-2-pyridyl)acetamide activin receptor-like kinase 1 (ALK1) inhibitors” (Medchemcomm, 2016).
In brackets after ≈: the same amount, converted by molar mass.

Experiments:
[1] = target: T1, Activin receptor type-1-like (Homo sapiens, UniProt P37023); test: Inhibition of ALK1 (unknown origin)
[2] = target: T1, Activin receptor type-1-like; test: Inhibition of ALK1 in HMEC-1 assessed as translocation of pSMAD1/5
[3] = Lipophilicity, log D of the compound at pH 7.4; format: physicochemical; details: buffer
[4] = Solubility of the compound; format: physicochemical
[5] = target: Proto-oncogene tyrosine-protein kinase Src (Homo sapiens) (UniProt P12931); test: Inhibition of Src (unknown origin) by HTRF assay
[6] = target: TGF-beta receptor type-1 (Homo sapiens) (UniProt P36897); test: Inhibition of ALK5 in recombinant human MDA-MB-468 cells assessed as translocation of GFP-smad2; format: cell-based
[7] = target: T1, Activin receptor type-1-like; test: Inhibition of human recombinant GST-tagged ALK1 expressed in baculovirus by FRET assay
Activin receptor type-1 = Activin receptor type-1 (Homo sapiens, UniProt Q04771); test: Inhibition of human recombinant GST-tagged ALK2 (amino acid 147 end) by FRET assay
[8] = target: Bone morphogenetic protein receptor type-1A (Homo sapiens, UniProt P36894); test: Inhibition of human recombinant N-terminal GST-tagged ALK3 (187 to 432 residues) expressed in insect cells by FRET assay
Activin receptor type-1B = Activin receptor type-1B (Homo sapiens, UniProt P36896); test: Inhibition of human recombinant GST-tagged ALK4 expressed in baculovirus by FRET assay
TGF-beta receptor type-1 = TGF-beta receptor type-1 (Homo sapiens, UniProt P36897); test: Inhibition of full length human N-terminal GST-tagged ALK5 expressed in baculovirus by FRET assay
[9] = target: Bone morphogenetic protein receptor type-1B (Homo sapiens, UniProt O00238); test: Inhibition of human recombinant N-terminal GST-tagged ALK6 (149 amino acids end) expressed in baculovirus infected Sf9 insect cells by FRET assay
[10] = AUC in Han Wistar rat at 5 umol/kg; format: ADME, organism-based; details: in vivo
[11] = Clearance in Han Wistar rat; format: ADME, organism-based; details: in vivo
[12] = Oral bioavailability in Han Wistar rat; format: ADME, organism-based; details: in vivo
[13] = Ratio of free drug level in nude mouse at 5 umol/kg administered as single dose after 24 hrs to IC50 for ALK1 in HMEC-1; format: ADME; details: in vivo
Mus musculus [14] = test: Free Cmax in nude mouse at 50 mg/kg, po administered as single dose after 24 hrs; format: ADME, organism-based; details: in vivo
Mus musculus [15] = test: Free drug concentration in nude mouse at 50 mg/kg, po administered as single dose after 24 hrs; format: ADME, organism-based; details: in vivo
[16] = Fraction unbound in mouse plasma; format: ADME, cell-free
[17] = target: Ephrin type-A receptor 2 (Homo sapiens) (UniProt P29317); test: Inhibition of human recombinant EPHA2 receptor (591 to 976 residues) expressed in insect Sf21 cells at 1 uM using poly(Glu4-Tyr1) as substrate after 30 mins
[18] = target: Tyrosine-protein kinase Yes (Homo sapiens) (UniProt P07947); test: Inhibition of human recombinant full-length YES1 expressed in insect Sf21 cells at 1 uM using poly(Glu4-Tyr1) as substrate after 30 mins
[19] = target: Proto-oncogene tyrosine-protein kinase Src (Homo sapiens) (UniProt P12931); test: Inhibition of human recombinant full-length Src expressed in insect Sf21 cells at 1 uM using KVEKIGEGTYGVVYK as substrate after 30 mins
[20] = target: MAP kinase-interacting serine/threonine-protein kinase 1 (Homo sapiens) (UniProt Q9BUB5); test: Inhibition of human recombinant full-length MNK1 expressed in Escherichia coli at 1 uM using eIF4E as substrate after 30 mins
[21] = target: Tyrosine-protein kinase BTK (Homo sapiens) (UniProt Q06187); test: Inhibition of BTK (unknown origin) at 1 uM
[22] = target: Mitogen-activated protein kinase 8 (Homo sapiens) (UniProt P45983); test: Inhibition of JNK1 (unknown origin) at 1 uM after 30 mins
[23] = target: Cyclin-dependent kinase 2 (Homo sapiens) (UniProt P24941); test: Inhibition of human recombinant full-length CDK2 expressed in Escherichia coli at 1 uM after 30 mins
[24] = target: Tyrosine-protein kinase CSK (Homo sapiens) (UniProt P41240); test: Inhibition of human recombinant full-length CSK at 1 uM after 30 mins
[25] = target: Glycogen synthase kinase-3 beta (Homo sapiens) (UniProt P49841); test: Inhibition of human recombinant full-length GSK3beta at 1 uM after 30 mins
[26] = target: Fibroblast growth factor receptor 1 (Homo sapiens) (UniProt P11362); test: Inhibition of human recombinant FGFR1 (400 to 820 residues) expressed in insect Sf21 cells at 1 uM using poly(Glu4-Tyr1) as substrate after 30 mins
[27] = target: Mitogen-activated protein kinase 11 (Homo sapiens) (UniProt Q15759); test: Inhibition of human recombinant full-length p38beta at 1 uM after 30 mins
[28] = target: Calcium/calmodulin-dependent protein kinase kinase 2 (Homo sapiens) (UniProt Q96RR4); test: Inhibition of human recombinant full-length CAMKKbeta expressed in Escherichia coli at 1 uM using AKPKGNKDYHLQTCCGSLAYRRR as substrate
[29] = target: Serine/threonine-protein kinase TBK1 (Homo sapiens) (UniProt Q9UHD2); test: Inhibition of human recombinant full-length TBK1 expressed in insect Sf21 cells at 1 uM using AKPKGNKDYHLQTCCGSLAYRRR as substrate
[30] = target: Vascular endothelial growth factor receptor 1 (Homo sapiens) (UniProt P17948); test: Inhibition of human recombinant full-length FLT1 at 1 uM after 30 mins
[31] = target: Mitogen-activated protein kinase 13 (Homo sapiens) (UniProt O15264); test: Inhibition of MAPK13 (unknown origin) at 1 uM
[32] = target: Inhibitor of nuclear factor kappa-B kinase subunit beta (Homo sapiens) (UniProt O14920); test: Inhibition of human recombinant full-length IKKbeta expressed in insect Sf21 cells at 1 uM using LDDRHDSGLDSMKDEEY as substrate after 30 mins
[33] = target: Maternal embryonic leucine zipper kinase (Homo sapiens) (UniProt Q14680); test: Inhibition of human recombinant full-length MELK expressed in Escherichia coli at 1 uM using KKLNRTLSFAEPG as substrate after 30 mins

T1 sequence (P37023 whole entry): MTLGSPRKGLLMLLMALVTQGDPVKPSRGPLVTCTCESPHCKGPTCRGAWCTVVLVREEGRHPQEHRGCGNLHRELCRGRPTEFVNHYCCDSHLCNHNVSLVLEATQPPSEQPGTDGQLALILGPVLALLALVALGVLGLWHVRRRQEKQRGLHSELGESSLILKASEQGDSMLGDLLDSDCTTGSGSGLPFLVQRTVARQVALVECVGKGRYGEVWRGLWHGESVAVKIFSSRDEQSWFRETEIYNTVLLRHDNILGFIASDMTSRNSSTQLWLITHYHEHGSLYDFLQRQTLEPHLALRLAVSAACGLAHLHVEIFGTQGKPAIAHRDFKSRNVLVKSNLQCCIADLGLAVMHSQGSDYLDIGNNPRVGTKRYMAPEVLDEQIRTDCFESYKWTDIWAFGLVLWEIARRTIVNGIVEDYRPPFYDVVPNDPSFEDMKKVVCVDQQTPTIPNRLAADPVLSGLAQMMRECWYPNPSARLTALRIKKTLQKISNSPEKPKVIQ
Chain of Proto-oncogene tyrosine-protein kinase Src (Homo sapiens) (P12931 2-536 limits assumed): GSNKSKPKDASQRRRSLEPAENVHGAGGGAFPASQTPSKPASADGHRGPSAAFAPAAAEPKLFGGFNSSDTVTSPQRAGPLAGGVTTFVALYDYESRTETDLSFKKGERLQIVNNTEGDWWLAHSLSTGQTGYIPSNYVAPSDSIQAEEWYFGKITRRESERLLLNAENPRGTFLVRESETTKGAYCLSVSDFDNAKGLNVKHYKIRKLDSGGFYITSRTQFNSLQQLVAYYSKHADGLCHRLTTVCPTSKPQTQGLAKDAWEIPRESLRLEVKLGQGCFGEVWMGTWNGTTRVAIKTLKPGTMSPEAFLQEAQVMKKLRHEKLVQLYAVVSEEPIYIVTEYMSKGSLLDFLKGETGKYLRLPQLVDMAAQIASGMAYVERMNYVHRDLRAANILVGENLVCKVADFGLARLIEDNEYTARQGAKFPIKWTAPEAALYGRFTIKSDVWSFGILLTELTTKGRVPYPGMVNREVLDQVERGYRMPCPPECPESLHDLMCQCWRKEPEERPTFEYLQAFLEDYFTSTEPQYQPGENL
Chain of MAP kinase-interacting serine/threonine-protein kinase 1 (Homo sapiens) (Q9BUB5 whole entry, looked up): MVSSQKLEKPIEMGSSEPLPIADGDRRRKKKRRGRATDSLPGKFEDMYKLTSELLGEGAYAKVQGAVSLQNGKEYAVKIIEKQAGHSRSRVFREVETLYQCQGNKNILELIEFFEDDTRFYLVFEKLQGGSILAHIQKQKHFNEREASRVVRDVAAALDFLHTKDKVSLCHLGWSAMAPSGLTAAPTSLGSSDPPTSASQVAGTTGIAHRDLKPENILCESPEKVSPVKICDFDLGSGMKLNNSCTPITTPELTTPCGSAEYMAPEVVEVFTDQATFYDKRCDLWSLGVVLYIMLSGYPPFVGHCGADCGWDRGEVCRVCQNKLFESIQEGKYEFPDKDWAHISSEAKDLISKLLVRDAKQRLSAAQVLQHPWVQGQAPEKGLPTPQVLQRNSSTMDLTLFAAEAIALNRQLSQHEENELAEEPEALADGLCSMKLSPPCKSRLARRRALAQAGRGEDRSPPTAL
Chain of Inhibitor of nuclear factor kappa-B kinase subunit beta (Homo sapiens) (O14920 whole entry): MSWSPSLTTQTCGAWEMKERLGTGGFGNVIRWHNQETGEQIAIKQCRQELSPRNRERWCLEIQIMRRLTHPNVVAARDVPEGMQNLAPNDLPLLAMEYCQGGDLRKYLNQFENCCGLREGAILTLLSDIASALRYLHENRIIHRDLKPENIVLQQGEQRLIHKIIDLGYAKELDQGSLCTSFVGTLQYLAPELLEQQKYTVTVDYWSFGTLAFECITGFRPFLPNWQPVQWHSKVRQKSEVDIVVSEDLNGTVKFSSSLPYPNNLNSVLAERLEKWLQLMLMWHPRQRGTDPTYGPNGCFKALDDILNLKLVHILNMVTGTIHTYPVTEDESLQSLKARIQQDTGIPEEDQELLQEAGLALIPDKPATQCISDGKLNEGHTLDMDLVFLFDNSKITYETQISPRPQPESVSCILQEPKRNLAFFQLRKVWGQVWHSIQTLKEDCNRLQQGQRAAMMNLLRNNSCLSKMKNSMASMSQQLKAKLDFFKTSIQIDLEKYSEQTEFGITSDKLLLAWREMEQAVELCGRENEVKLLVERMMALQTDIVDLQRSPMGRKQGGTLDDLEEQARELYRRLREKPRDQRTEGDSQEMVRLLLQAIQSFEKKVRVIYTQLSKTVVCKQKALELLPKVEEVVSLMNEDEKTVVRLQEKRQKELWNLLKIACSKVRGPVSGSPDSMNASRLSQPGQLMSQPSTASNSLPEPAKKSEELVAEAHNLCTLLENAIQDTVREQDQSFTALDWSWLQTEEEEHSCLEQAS
Chain of Mitogen-activated protein kinase 11 (Homo sapiens) (Q15759 whole entry): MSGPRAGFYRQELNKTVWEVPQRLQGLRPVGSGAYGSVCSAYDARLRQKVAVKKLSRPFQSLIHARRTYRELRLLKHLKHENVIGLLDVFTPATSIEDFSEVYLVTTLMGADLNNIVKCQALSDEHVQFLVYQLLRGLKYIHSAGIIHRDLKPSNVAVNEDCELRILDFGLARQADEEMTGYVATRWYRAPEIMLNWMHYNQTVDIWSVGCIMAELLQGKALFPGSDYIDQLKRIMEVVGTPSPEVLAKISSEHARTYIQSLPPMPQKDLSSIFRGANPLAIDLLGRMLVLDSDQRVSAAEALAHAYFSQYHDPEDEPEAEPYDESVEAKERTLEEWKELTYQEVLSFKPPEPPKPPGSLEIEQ
Chain of Mitogen-activated protein kinase 8 (Homo sapiens) (P45983 whole entry): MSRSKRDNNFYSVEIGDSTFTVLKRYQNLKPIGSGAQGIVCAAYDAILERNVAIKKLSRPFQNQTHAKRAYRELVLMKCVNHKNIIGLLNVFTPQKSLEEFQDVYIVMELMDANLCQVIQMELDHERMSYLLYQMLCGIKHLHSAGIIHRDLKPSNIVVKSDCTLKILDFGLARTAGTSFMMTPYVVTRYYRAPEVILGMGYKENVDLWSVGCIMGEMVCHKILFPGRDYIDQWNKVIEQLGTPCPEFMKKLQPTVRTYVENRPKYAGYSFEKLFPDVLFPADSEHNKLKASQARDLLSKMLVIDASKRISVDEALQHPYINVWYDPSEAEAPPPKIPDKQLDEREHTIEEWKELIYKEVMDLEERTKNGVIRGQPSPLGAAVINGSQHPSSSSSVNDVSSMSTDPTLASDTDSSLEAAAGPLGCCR
Chain of Serine/threonine-protein kinase TBK1 (Homo sapiens) (Q9UHD2 whole entry): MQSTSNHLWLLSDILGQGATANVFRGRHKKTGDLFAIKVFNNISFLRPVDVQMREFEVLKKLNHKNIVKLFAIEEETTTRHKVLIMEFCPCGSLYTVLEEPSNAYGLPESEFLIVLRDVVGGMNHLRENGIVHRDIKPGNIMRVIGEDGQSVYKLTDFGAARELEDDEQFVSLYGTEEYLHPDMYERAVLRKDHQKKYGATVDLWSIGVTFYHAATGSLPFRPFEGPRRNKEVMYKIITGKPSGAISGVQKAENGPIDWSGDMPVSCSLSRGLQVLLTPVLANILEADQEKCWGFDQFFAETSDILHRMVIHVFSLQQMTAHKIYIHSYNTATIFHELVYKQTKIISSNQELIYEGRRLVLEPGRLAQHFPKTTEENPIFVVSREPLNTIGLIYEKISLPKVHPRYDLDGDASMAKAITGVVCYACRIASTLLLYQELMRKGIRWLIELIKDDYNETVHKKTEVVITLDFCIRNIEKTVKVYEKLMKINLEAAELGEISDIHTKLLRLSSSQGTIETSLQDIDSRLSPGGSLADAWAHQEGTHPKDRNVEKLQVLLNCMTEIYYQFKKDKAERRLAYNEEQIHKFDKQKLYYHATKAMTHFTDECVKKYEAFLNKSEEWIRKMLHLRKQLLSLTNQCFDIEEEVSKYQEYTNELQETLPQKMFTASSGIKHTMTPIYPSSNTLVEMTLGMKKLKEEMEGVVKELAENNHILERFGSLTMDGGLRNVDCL
Chain of Mitogen-activated protein kinase 13 (Homo sapiens) (O15264 whole entry): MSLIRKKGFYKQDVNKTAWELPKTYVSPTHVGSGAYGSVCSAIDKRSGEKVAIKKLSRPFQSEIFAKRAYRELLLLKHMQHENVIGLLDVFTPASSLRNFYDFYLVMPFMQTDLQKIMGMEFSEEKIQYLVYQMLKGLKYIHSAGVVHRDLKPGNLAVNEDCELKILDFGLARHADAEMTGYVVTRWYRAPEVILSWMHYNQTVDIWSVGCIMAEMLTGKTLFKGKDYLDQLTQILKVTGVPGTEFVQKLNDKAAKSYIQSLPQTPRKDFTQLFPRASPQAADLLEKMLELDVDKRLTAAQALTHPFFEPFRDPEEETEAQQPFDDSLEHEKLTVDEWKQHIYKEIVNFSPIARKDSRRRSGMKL
Chain of Tyrosine-protein kinase Yes (Homo sapiens) (P07947 2-543 limits assumed): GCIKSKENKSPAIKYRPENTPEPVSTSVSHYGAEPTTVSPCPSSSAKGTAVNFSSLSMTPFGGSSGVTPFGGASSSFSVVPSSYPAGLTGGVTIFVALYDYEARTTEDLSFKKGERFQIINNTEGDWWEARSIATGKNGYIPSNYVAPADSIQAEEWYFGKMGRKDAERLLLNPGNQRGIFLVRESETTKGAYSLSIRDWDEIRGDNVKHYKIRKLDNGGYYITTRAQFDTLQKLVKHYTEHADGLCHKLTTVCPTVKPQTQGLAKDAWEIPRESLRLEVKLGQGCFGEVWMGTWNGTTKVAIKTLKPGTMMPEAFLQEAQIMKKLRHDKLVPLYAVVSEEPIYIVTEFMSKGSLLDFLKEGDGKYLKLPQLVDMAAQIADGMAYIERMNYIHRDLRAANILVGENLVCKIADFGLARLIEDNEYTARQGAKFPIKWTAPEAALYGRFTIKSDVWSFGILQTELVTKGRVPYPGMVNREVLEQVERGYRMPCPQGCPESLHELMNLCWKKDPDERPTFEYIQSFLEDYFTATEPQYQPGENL

IC50 [1]: 4 nM | IC50 [2]: 45 nM | logD [3]: 2.7 | solubility [4]: 63 µM (≈ 21 µg/mL) | INH [5]: 4.4 µM | INH [6]: 0.12 µM | IC50 [7]: 1.1 nM | IC50 (Activin receptor type-1): 1.2 nM | IC50 [8]: 2.4 nM | IC50 (Activin receptor type-1B): 31 nM | IC50 (TGF-beta receptor type-1): 1.9 nM | IC50 [9]: 1300 nM | AUC [10]: 3.8 µM·h | clearance [11]: 8.4 mL/min/kg | bioavailability [12]: 38% | Ratio [13]: > 10 | fCmax (Mus musculus [14]): 31.7 µM | Drug uptake(free) (Mus musculus [15]): 0.37 µM | fraction unbound [16]: 0.27 | inhibition [17]: > 50% | inhibition [18]: > 50% | inhibition [19]: < 80% | inhibition [20]: < 80% | inhibition [21]: < 80% | inhibition [22]: < 80% | inhibition [23]: < 80% | inhibition [24]: < 80% | inhibition [25]: < 80% | inhibition [26]: < 80% | inhibition [27]: < 80% | inhibition [28]: < 80% | inhibition [29]: < 80% | inhibition [30]: < 80% | inhibition [31]: < 80% | inhibition [32]: < 80% | inhibition [33]: < 80%
Compound: O=C(Nc1cc(Nc2c(Cl)cnc3c2OCO3)ccn1)C1CC1
